Experiment: in vitro
Settings: human, hela cells, % viability

Row | SMILES | viability at 28.5 h, 10 µM
1 | CC(=O)Nc1ccc(Nc2nc(Br)cn3ccnc23)cc1 [CBK066338] | 104%
2 | Cc1cccn2c(=O)c(/C=C3\SC(=S)N(CC4CCCO4)C3=O)c(NCCCn3ccnc3)nc12 (centres unmarked) [CBK263825] | 119%
3 | O=C(c1cc(F)c(F)cc1F)N1CCC2(CCN(Cc3nc4ccccc4[nH]3)C2)C1 (centres unmarked) [CBK132134] | 89.9%
4 | COc1ccccc1OCC(=O)NNC(=O)c1cnccn1 [CBK262617] | 109%
5 | NS(=O)(=O)c1ccc(S(=O)(=O)N2CCN(C/C=C/c3ccccc3)CC2)cc1 [CBK266723C] | 95.8%
6 | CC1CCCN(C(=O)c2ccc(-n3ccnc3)c(-n3cccc3)c2)C1 (centres unmarked) [CBK285370] | 95.1%
7 | Cc1cnc2c(Cl)c(C(=O)NCC(F)(F)F)nn2c1 [CBK307391] | 93.1%
8 | CN(CC(=O)O)c1ccccc1C(=O)O [CBK260996] | 98.2%
9 | O=C1OCc2ccc3c(c21)COCO3 [CBK022696] | 107%
10 | Cc1cccc(OCC2CCCN(C(=O)Cn3cc(C)cn3)C2)c1 (centres unmarked) [CBK281531] | 89.9%
11 | O=C(O)c1c(NS(=O)(=O)Cc2ccccc2[N+](=O)[O-])sc2c1CCCC2 [CBK024819] | 106%
12 | COC(=O)c1ccc(CN2CCCC2)cc1 [CBK029023] | 106%
13 | CC[C@H]1CN(C(=O)C2CC2)CC[C@H]1CC(=O)NCc1ccc2c(c1)OCO2 [CBK289133] | 91.9%
14 | CC(C)Oc1ccc(CCNC(=N)NC(=N)N)cc1Cl [CBK263966] | 91.5%
15 | O=C(Cc1cc(Cl)ccc1C(F)(F)F)Nc1ccc2ncccc2c1 [CBK159802] | 94.7%
16 | CN(C)C(=O)CSc1nnc(-c2cccc3ccccc23)n1-c1ccccc1 [CBK266044] | 92%
17 | O=C(Cn1nnc(-c2ccccc2)n1)Nc1cccc([N+](=O)[O-])c1 [CBK263057] | 97.9%
18 | CCn1c(C)nc2cc(NC(=O)Cc3c(C)noc3C)ccc21 [CBK281834] | 100%
19 | COc1ccccc1CN(Cc1cccnc1)C(=O)CCn1cnnn1 [CBK307106] | 90.4%
20 | O=C(O)c1nccnc1C(=O)N1CCN(c2ccc(Cl)cc2)CC1 [CBK286826] | 89.4%
21 | COc1cccc(CN2CCC3(C2)c2[nH]c4c(C)cccc4c2CCN3C(C)=O)c1 (centres unmarked) [CBK039662] | 84.9%
22 | O=C(CSCc1nc2ccccc2c(=O)n1-c1ccccc1Cl)Nc1ccccc1 [CBK070895] | 95.2%

Row | SMILES | viability at 28.5 h, 10 µM
23 | CCN(CC)C(=O)CC1SC(NCC2CCCCC2)=NC1=O (centres unmarked) [CBK067923] | 92.9%
24 | O=C(NCCO)c1ccc(-c2cnc3[nH]c(=O)n(C4CCOCC4)c3n2)cc1 [CBK065041] | 108%
25 | CN(C)Cc1ccccc1-n1cc(-c2cccnc2)nn1 [CBK113064] | 92.5%
26 | CC(Cc1cccs1)NC(=O)c1cc(C2CC2)on1 (centres unmarked) [CBK283244] | 107%
27 | Cc1ccc(C(=O)Nc2noc3ccccc23)cc1 [CBK288124] | 88.9%
28 | CCc1[nH]nc(O)c1Cc1c(Cl)cccc1Cl [CBK105304] | 115%
29 | Cc1cc2n(n1)[C@@H](C(F)F)C[C@@H](C1CCCN(C(=O)C(C)C)C1)N2 (some centres unmarked) [CBK284722] | 96.1%
30 | CC(=O)Nc1cccc(-c2cc(NCc3ccccc3)n3nccc3n2)c1 [CBK037153] | 97.2%
31 | COc1ccc(-c2cc(C(F)(F)F)nc(SCC(=O)Nc3cccnc3)n2)cc1OC [CBK266148] | 103%
32 | O=C(c1ccc(-c2ccccc2)cc1)c1no[n+]([O-])c1C(=O)c1ccc(-c2ccccc2)cc1 [CBK261754] | 106%
33 | C(=N\Nc1nc2ccccc2[nH]1)/c1cccnc1 [CBK026357] | 115%
34 | O=c1c2sccc2nc2n1CCN(Cc1ccc(F)c(F)c1)CC2 [CBK282295] | 103%
35 | O=C(C1=C(O)C(=O)N(CCCN2CCOCC2)C1c1cccs1)c1cccs1 (centres unmarked) [CBK264533] | 111%
36 | Cc1noc(NS(=O)(=O)c2ccc(NC(=O)COc3cccc(Br)c3)cc2)c1C [CBK264086] | 104%
37 | O=C(O)c1ccc(S(=O)(=O)NCc2ccc3c(c2)OCO3)cc1 [CBK262360] | 97%
38 | CN(C)c1ccc(CC(=O)Nc2cnc(-c3ccc(F)c(Cl)c3)c(-c3ccco3)n2)cc1 [CBK037581] | 97.9%
39 | Cc1ccc(C(=O)NCCNc2cnccn2)cc1S(C)(=O)=O [CBK246280] | 103%
40 | O=C(NC1CCc2ccccc21)N1CCN(CCc2ccccc2)CC1 (centres unmarked) [CBK158936] | 96.1%
41 | c1ccc(CSc2nnc3ccc(-c4ccncc4)nn23)cc1 [CBK287681] | 86.5%
42 | CN(C(=O)Cc1ccsc1)c1nc2c(s1)CCc1c-2cnn1C [CBK281929] | 82.4%
43 | O=C(O)CSc1nc2ccccc2n1Cc1ccccc1 [CBK262411] | 94.2%
44 | Cc1nn(CCNC(=O)C(c2ccc(F)cc2)N(C)C)c(C)c1C (centres unmarked) [CBK282009] | 89.2%

Row | SMILES | viability at 28.5 h, 10 µM
45 | CC1CCCC(C)N1c1nn(C)c(=O)[nH]1 (centres unmarked) [CBK019114] | 100%
46 | CC1(C(F)(F)F)OC(NC2C3CC4CC(C3)CC2C4)=NC1=O (centres unmarked) [CBK115312] | 114%
47 | CC(C)(C)OC(=O)N1CCCN(c2ccc(S(=O)(=O)c3ccccc3)c([N+](=O)[O-])c2)CC1 [CBK138502] | 99.2%
48 | COc1cccc(-c2cc(C(=O)NCCCN3CCOCC3)c3ccccc3n2)c1 [CBK262630] | 91.7%
49 | CCn1cc(CN(CCCN(C)C)Cc2ccc(C)o2)c(C)n1 [CBK283201] | 95.5%
50 | Nc1ncc(-c2cccc(Br)c2)nc1NC1CCOCC1 [CBK063854] | 108%
51 | O=C(O)C1N(Cc2ccccc2)CCCN1Cc1ccccc1 [CBK265196] | 111%
52 | Cc1ccc(S(=O)(=O)N(CC(=O)NCc2ccco2)c2cccc(C)c2)cc1 [CBK264125] | 93.9%
53 | O=C1c2ccccc2-c2onc3c(NCc4ccccc4)cc(Nc4ccccc4)c1c23 [CBK261979] | 84%
54 | Cc1noc(C)c1C(=O)N(C)CC(=O)Nc1ccc(Cl)c(C(F)(F)F)c1 [CBK295363] | 95.7%
55 | Cc1csc(CNCc2c(C)nn(C)c2N(C)C)n1 [CBK304804] | 103%
56 | Cc1ccc(NC(=O)N2CCn3cccc3C2c2cccnc2)cc1 (centres unmarked) [CBK287733] | 87.1%
57 | Cc1cc(C)n(C(=O)c2ccc([N+](=O)[O-])cc2N)n1 [CBK266491] | 102%
58 | FC(F)(F)c1ccnc(Sc2cccs2)n1 [CBK115245] | 87.7%
59 | CC(C)NC(=O)c1cc(C2CCN(C(=O)CCOc3ccccc3F)C2)nc2ccccc12 (centres unmarked) [CBK285917] | 101%
60 | CC(C)Cc1ccc(C(C)c2nc3ccccc3[nH]2)cc1 (centres unmarked) [CBK261484] | 89.7%
61 | O=C(CCn1c(-c2ccccc2)c(-c2ccccc2)c2ccccc21)N/N=C/c1cccc(O)c1 [CBK262348] | 52.1%
62 | CC(O)CNCCNc1c(Cl)cccc1[N+](=O)[O-] (centres unmarked) [CBK262802C] | 98.8%
63 | Cc1nn(Cc2nnn(CC(=O)O)n2)c(C)c1Br [CBK009457] | 101%
64 | CCCCN(C(=O)c1cc(C)nc2ccccc12)c1ccccc1 [CBK296926] | 89.9%
65 | NC(=O)CNC(=O)C1CCCN(c2nc3c(-c4ccccc4)csc3c(=O)[nH]2)C1 (centres unmarked) [CBK215487] | 112%
66 | COc1ccc(C(=O)O)cc1NC(=S)NC(=O)c1ccc(-c2cc(Cl)ccc2Cl)o1 [CBK265074] | 104%

Row | SMILES | viability at 28.5 h, 10 µM
67 | CC1CCc2c(sc(NC(=O)c3cccs3)c2C(=O)N(C)C)C1 (centres unmarked) [CBK307100] | 90.9%
68 | NCCc1c[nH]c2ccc(OCC(=O)O)cc12 [CBK265853C] | 86.2%
69 | O=C(O)C(Cc1ccccc1)NS(=O)(=O)c1ccc(I)cc1 (centres unmarked) [CBK268807] | 110%
70 | CC(NS(=O)(=O)c1cccs1)c1ccccc1 (centres unmarked) [CBK043601] | 114%
71 | O=C(O)CCCc1ccc2sc3ccccc3c2c1 [CBK010971] | 84.8%
72 | O=C1CN(S(=O)(=O)CCOc2ccccc2)CC(=O)N1CCc1ccccc1 [CBK261134] | 92.8%
73 | c1ccc2oc(-c3cc4ccccc4o3)cc2c1 [CBK113363] | 113%
74 | Cc1nc(-c2ccccc2)sc1CNC(=O)c1ccc([N+](=O)[O-])o1 [CBK092352] | 54.8%
75 | CC(SCc1ccccc1)C(=O)NC(C)c1ccccc1 (centres unmarked) [CBK263772] | 103%
76 | O=S(=O)(Nc1cccc(-c2cnco2)c1)c1cc(C(F)(F)F)cc(C(F)(F)F)c1 [CBK067127] | 109%
77 | CSc1ccc(-c2nc(NC(=O)C(C)C)cc3ccccc23)cc1 [CBK085735] | 95.5%
78 | CN(C)CCN1CCN(c2nc(-c3ccc4[nH]ccc4c3)cn3ccnc23)CC1 [CBK036587] | 102%
79 | CN1CCN(c2nc(-c3ccccc3)cc(-c3ccc(Br)cc3)n2)CC1 [CBK262774] | 93.7%
80 | Cc1cc(C(=O)N2CCCC(c3ccc(Cc4ccc(Cl)cc4)cn3)C2)nc(N(C)C)n1 (centres unmarked) [CBK286036] | 116%
81 | Cc1cc(C)cc(N(CC(=O)Nc2ccc(C)c(Cl)c2)S(=O)(=O)c2ccccc2)c1 [CBK264109] | 98.9%
82 | N=C1NC(=O)/C(=C/c2ccc(OS(=O)(=O)c3ccc4ccccc4c3)cc2)S1 [CBK263605] | 106%
83 | CCCc1ccc(-c2nccn2CCn2cc(C)nn2)o1 [CBK307688] | 101%
84 | Cc1nc(C)c(-c2cnc(NS(=O)(=O)c3ccc(Cl)cc3)nc2)s1 [CBK005935] | 86.9%
85 | Cc1cc(C)nc(N2CCN(C(=O)CCC(=O)NCc3cccc(C(F)(F)F)c3)CC2)n1 [CBK022261] | 107%
86 | Cc1nc2c(C(=O)NCC(F)(F)F)cnn2c(C)c1Cc1cccc(C#N)c1 [CBK162093] | 91.6%
87 | CCN(CC)C(=O)c1sc2nc(-c3cccs3)nc(C)c2c1N [CBK115366] | 100%
88 | O=c1c(-c2nncn2-c2ccccc2)coc2c(O)c(O)ccc12 [CBK266889] | 102%

Same assay, conditions: human, hela cells, % viability, bulk resorufin, single well

Row | SMILES | viability at 28.5 h, 10 µM
89 | Cc1cc(/C=C2\C(=O)NC(=O)N(c3ccccc3F)C2=O)c(C)n1-c1cc(C(=O)O)cc(C(=O)O)c1 [CBK264028] | 89.9%

Reference: PMC12040169 (PLOS Biology, 2025)
